Test results: patent US20250020635A1, “ASSAY METHODS AND USES THEREOF FOR SCREENING ALZHEIMER'S DISEASE TREATMENT COMPOUNDS” (priority 2023, published 2025)
Entries after “also recorded” stand apart in the source; their conditions may differ. Where two headings read alike, the source gives them in different places.

What was measured:
BV2 cells = assay: Microglial phagocytosis/cell health high-content assay, BV2 cells; type: cell-based; conditions: for Ave. % Cell Count @ 60 uM BV2 cells / Ave. % Phagocytosis @ 60 uM BV2 cells: 48 hrs, compared to control; for phagocytosis increase against cell count decline: HMC3 and BV2 cells (Table 6, FIGS. 21, 22); for EC50 / IC50: Mus musculus, BV-2; for IC50: read-out: cell count decrease IC50
Description: (§1) The assay introduced here is a simplified cellular imaging assay without any fixation and washing steps, while producing multiparameter measurements with high capacity using a 384-well plate format. The assay procedures include plating cells on day 1, incubating cell plates overnight before treating cells on day 2, adding pHrodo™-myelin/membrane debris to cell plates on day 3, and 20 hr later, staining cell nuclei with Hoechst-33342 for 30 min before performing high-content imaging on day 4. Three selected parameters are measured from cells: 1) mean total fluorescence intensity per cell of pHrodo™-myelin/membrane debris in phagocytosis vesicles to quantify phagocytosis; 2) cell counts per well to quantify treatment effects on proliferation and cell death; and 3) average nuclear intensity to quantify treatment-induced nuclear changes such as in apoptosis. The assay has been used on HMC3 cells (an immortalized human microglial cell line), BV2 cells (an immortalized mouse microglial cell line), and primary microglia isolated from mouse brains. For initial assay attempts, we recommend using HMC3 cells available from the ATCC.
(§2) All collected raw data are normalized to the untreated control with following formula: % of control=100×(X−Min)/(Max−Min). Factors in the formula are: X is raw data from a treated well, Max is an average measurement from pHrodo™-myelin seeded but untreated wells, and Min is an average measurement from no pHrodo™-myelin untreated wells. Normalized data are used for curve fitting that is done with the variable slope (four parameters) using the Prism software.
(§3) To ensure that the measurements reflect the steady state of compound treatment effects and cell health, the assay was set with a total compound treatment time of 48 hr, including pHrodo™-myelin/membrane debris seeding performed 20-24 hr after compound addition. […] Among many available quantitative measurements from the image analysis, we selected three parameters for the assay:
(§4) 1) The mean total intensity of phagocytosis vesicles/cell—to measure phagocytosis. There are multiple parameters generated from the image analysis, including phagocytosis vesicle area, number, and various fluorescence intensity measurements. Comparing these parameters, the total fluorescence intensity of vesicles/cell is the most sensitive one and was chosen for quantifying phagocytosis.
(§5) 2) The total cell counts—to measure overall cell viability, which is affected by proliferation and cell death. We chose to take 4 images/well (with the 10× objective lens) that cover about 50% of the total area of a well in a 384-well plate to represent cell count of the well.
(§6) 3) The average nuclear intensity—to measure drug-induced apoptosis, with high signal indicating nuclear condescension (a sign of early apoptosis) and low signal indicating DNA degradation (a sign of later apoptosis, when activated caspases digest DNA).
(§7) A phenotypic high-content imaging assay with simultaneous measurements of phagocytosis, cell number, and nuclear intensity was used to assess both cellular pharmacology and cell health. Model cell lines BV2 (immortalized mouse microglia, a gift from Dr. Michelle Block's laboratory at IUSM) and HMC3 (immortalized human microglia, obtained from ATCC, CRL-3304) were used to provide adequate throughput. Cells were cultured in DMEM GlutaMax media (ThermoFisher) containing 10% FBS and Pen-Strep in a 37° C. 5% CO2 incubator, plated in Corning Falcon 384 well Optilux Black and clear bottom plates: 400 cells/45 μl/well (BV2 cells), 600 cells/45 μl/well (HMC3 cells) and 2000 cell/45 μl/well (primary cells), and treated with 10× serially diluted compounds (60 μM-3 nM) for 48 hrs at 37° C. […]

HMC3 cells = assay: Microglial phagocytosis/cell health high-content assay, HMC3 cells; type: cell-based; conditions: for Ave. % Cell Count @ 60 uM HMC3 cells / Ave. % Phagocytosis @ 60 uM HMC3 cells: 48 hrs, compared to control; for IC50: read-out: inhibition of phagocytosis IC50; for EC50: read-out: stimulation of phagocytosis EC50
Description: as §1, §2, §3, §4, §5, §6, §7

PLCγ2-HiBit = molecular target: T1, PLCγ2-HiBit (Homo sapiens, UniProt P16885); assay: Cellular thermal shift assay (SplitLuc CETSA), PLCγ2-HiBit in HMC3 cells; type: cell-based; conditions: for PLCγ2-HiBit %, percent luminescence at highest dose compared to control (DMSO): 100 μM
T1 construct: expressed in transfected cells; host or cells: HMC3 cells
T1 sequence (P16885 1-1265): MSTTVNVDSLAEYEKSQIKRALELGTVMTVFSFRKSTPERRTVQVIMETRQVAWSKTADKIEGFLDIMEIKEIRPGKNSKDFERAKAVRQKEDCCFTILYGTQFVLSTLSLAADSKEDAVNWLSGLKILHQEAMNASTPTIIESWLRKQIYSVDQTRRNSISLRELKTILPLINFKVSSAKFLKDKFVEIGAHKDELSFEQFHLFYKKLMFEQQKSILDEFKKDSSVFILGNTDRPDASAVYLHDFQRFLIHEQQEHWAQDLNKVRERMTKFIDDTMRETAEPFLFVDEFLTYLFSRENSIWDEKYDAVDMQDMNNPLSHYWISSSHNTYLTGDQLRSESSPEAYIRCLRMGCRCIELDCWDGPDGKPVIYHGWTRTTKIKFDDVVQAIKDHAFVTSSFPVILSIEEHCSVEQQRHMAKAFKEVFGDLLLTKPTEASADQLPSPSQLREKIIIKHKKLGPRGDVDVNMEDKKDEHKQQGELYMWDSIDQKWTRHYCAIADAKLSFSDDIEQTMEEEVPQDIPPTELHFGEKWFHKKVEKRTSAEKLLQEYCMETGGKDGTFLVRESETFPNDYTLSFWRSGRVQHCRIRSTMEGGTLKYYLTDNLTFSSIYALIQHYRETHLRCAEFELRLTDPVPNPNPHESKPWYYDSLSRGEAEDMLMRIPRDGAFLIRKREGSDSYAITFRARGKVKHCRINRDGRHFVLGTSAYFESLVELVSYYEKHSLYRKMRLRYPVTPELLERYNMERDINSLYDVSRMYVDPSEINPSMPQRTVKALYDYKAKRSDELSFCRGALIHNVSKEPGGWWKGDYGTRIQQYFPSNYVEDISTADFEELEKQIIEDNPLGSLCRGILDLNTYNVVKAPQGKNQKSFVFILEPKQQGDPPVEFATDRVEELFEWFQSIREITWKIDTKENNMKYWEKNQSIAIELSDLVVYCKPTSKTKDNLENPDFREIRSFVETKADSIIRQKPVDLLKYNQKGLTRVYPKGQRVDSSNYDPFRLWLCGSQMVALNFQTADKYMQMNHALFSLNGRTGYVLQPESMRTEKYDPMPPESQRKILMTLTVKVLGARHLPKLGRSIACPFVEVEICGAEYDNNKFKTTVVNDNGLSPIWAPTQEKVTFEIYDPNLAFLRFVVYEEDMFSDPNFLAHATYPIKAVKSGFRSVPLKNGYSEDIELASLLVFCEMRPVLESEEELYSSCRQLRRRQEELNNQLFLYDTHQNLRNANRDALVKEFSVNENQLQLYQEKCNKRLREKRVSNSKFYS
Excerpt: These compounds have been evaluated using a wide variety of assay classes namely target engagement utilizing cellular thermal shift assay (CETSA),^34 affinity selection mass spectrometry (ASMS),^35 biochemical activity employing the fluorogenic probe XY-69,^36 and cellular activity testing for phagocytosis. Cellular Thermal Shift Assays (CETSA) assess cellular target engagement by quantifying changes in protein thermal stability upon ligand binding to endogenous proteins in intact cells.^34 For SAR studies, a split Nano Luciferase (SplitLuc CETSA) version of the assay was utilized to provide sufficient throughput.^37,38 HMC3 cells were stably transfected with PLCγ2-HiBit to enable protein expression in a physiologically relevant cellular context. The thermal stability of this HiBit-labeled protein in intact cells was measured in the following two formats. In the initial screen, using 96-well plates, cells were treated with FBS analogs at a single concentration (100 μM) at 37° C. for 60 min and then exposed to a 3-minute isothermal heating step at 45.9° C. (experimentally determined Tm of PLCγ2-HiBit). Luminescence detection was then conducted with the Nano-Glo HiBit Lytic detection kit (Promega, Cat. N3040).^38 Compound treatment was performed in triplicate, and raw signals were normalized to the mean of the controls (in the same plate) as % of control. When the difference in compound-treated cells >control mean+3SD, the compound was considered positive and selected for further testing with dose-response CETSA. In the dose response CETSA, cells were treated with decreasing concentrations from 100 μM with 1:3 serial dilutions to generate an 8-point curve. An AC50 was calculated with the % of control data using a four-parameter logistic curve regression model, and the percent luminescence remaining at the highest concentration is also reported for the compounds when the difference from the DMSO control is greater than 3× the standard deviation (SD). Otherwise, an AC50 was not calculated.

HiBit only = assay: Cellular thermal shift assay (CETSA), HiBit only control; type: cell-based, human; conditions: for HiBit only %, percent luminescence at highest dose with HiBit only compared to control (DMSO): 100 μM; for HiBit only % @100 μM: Table 1
MDCK = MDCK permeability; type: in vitro ADME; conditions: estimate of intestinal absorption
Description: (§8) Physicochemical and ADME properties were determined using the following assays: microsomal stability intrinsic clearance (Clint) in mouse liver microsomal solution, MDCK permeability (Papp), protein binding (fu) in mouse plasma, and kinetic solubility in pH 7.4 phosphate buffer (Table 7).

[1] = Kinetic solubility in pH 7.4 phosphate buffer; type: physicochemical
Description: as §8

[2] = Table 1, CETSA dose response, read-out: AC50
[3] = Table 5, 8-point dose response from 100 μM, HMC3 cells, 45.9° C., read-out: AC50, concentration that induced a half-maximum loss of luminesce compared to control
[4] = Homo sapiens, HMC3, 48 h, HMC3 cells, 48 hours treatment

Row | Compound | Ave. % Cell Count @ 60 uM BV2 cells (BV2 cells) [%] | Ave. % Phagocytosis @ 60 uM BV2 cells (BV2 cells) [%] | phagocytosis increase against cell count decline (BV2 cells) | Ave. % Cell Count @ 60 uM HMC3 cells (HMC3 cells) [%] | Ave. % Phagocytosis @ 60 uM HMC3 cells (HMC3 cells) [%] | PLCγ2-HiBit %, percent luminescence at highest dose compared to control (DMSO) (PLCγ2-HiBit) [%] | PLCy2-HiBit % @100 (PLCγ2-HiBit; Table 1) [%] | AC50 (PLCγ2-HiBit; [2]) [µM] | AC50 (PLCγ2-HiBit; [3]) [µM] | HiBit only %, percent luminescence at highest dose with HiBit only compared to control (DMSO) (HiBit only) [%] | HiBit only % @100 μM (HiBit only) [%] | also measured
1 | Cc1cccc(NS(=O)(=O)c2c(C)cc(C)cc2C)c1 [Compound 5] | 45 | 165 | the increase was paired with a sharp cell count decline | 78 | 111 | 54 | 54 | > 100 | > 100 | 95 | 96 | 
2 | Cc1cc(C)c(S(=O)(=O)Nc2cccc(C(F)F)c2)c(C)c1 [Compound 7] | 2 | 0 |  | 6 | 0 | 78 | 78 |  |  | 104 | 104 | Papp, MDCK permeability (MDCK): 37.4 ×10−^6 cm/s; Kinetic solubility [1]: 41 to 60 µM
3 | O=S(=O)(Nc1cccc(C(F)(F)F)c1)c1ccc(Cl)cc1Cl [Compound 9] | 9 | 581 | the increase was paired with a sharp cell count decline | 16 | 281 | 32 | 32 | 71 | 71 | 38 | 38 | 
4 | Cc1cc(Br)ccc1S(=O)(=O)Nc1cccc(C(F)(F)F)c1 [Compound 10] | 1 | 434 | the increase was paired with a sharp cell count decline | 11 | 93 | 17 | 17 | 57 | 57 | 40 | 40 | 
5 | CC[C@H](Nc1ncnc2[nH]cnc12)c1nc2cccc(F)c2c(=O)n1-c1ccccc1 [Idelalisib, reference compound] |  |  |  |  |  |  |  |  |  |  |  | effect on phagocytosis (BV2 cells; BV2 cells, 48 hours treatment): did not inhibit phagocytosis in BV2 cells, but increased phagocytosis in parallel with decreasing cell counts and increasing nuclear intensity; EC50 (BV2 cells; BV2 cells, 48 hours treatment, 60 μM the maximal dose, read-out: stimulation of phagocytosis EC50): > 60 µM; IC50 (BV2 cells; BV2 cells, 48 hours treatment): 22 µM; EC50 (BV2 cells; BV2 cells, 48 hours treatment, read-out: nuclear intensity increase EC50): 4.14 µM; IC50 (HMC3 cells; HMC3 cells, 48 hours treatment): 0.526 µM; IC50 (HMC3 cells; [4]): ~0.5 µM
6 | CN1CCN(CCOc2cc(OC3CCOCC3)c3c(Nc4c(Cl)ccc5c4OCO5)ncnc3c2)CC1 [Saracatinib, reference compound] |  |  |  |  |  |  |  |  |  |  |  | concentrations showing cell count decreases (BV2 cells; BV2 cells, 48 hours treatment): > 1 µM; IC50 (BV2 cells; BV2 cells, 48 hours treatment): 0.833 µM; EC50 (BV2 cells; BV2 cells, 48 hours treatment, read-out: increased phagocytosis EC50): 0.266 µM; concentrations showing cytotoxicity (HMC3 cells; HMC3 cells, 48 hours treatment): > 10 µM; EC50 (HMC3 cells; HMC3 cells, 48 hours treatment): 0.182 µM; EC50 (HMC3 cells; [4]): < 0.2 µM
7 | Lipopolysaccharides [LPS, reference compound] |  |  |  |  |  |  |  |  |  |  |  | changes in nuclear intensity (BV2 cells; BV2 cells, 48 hr): no nuclear intensity changes up to 10 μg/ml LPS; also recorded: no changes in nuclear intensity; inhibition of cell count IC50 (BV2 cells; BV2 cells, 48 hr): 0.122 µg/mL; stimulation of phagocytosis EC50 (BV2 cells; BV2 cells, 48 hr): 0.255 µg/mL; response (phagocytosis, cell count, nuclear intensity) (HMC3 cells; HMC3 cells, 48 hr): did not respond to LPS treatment
